From publication PMC7822874, “Chemoprotective antimalarials identified through quantitative high-throughput screening of Plasmodium blood and liver stage parasites” (Scientific Reports, 2021)
Where two headings read alike, the source gives them in different places.

Assays:
in vitro = conditions: human
[1] = tested on: luciferase-expressing P. berghei liver stage parasites in HepG2 cells; experiment: Inhibition of liver-stage development assay (ILSDA), Method 2 (WRAIR, 96-well); assay type: cell-based, Plasmodium berghei; conditions: for AC50: Plasmodium berghei
[2] = tested on: Plasmodium falciparum Dd2 asexual blood stage parasites; experiment: microbe, parasite or virus in culture; design: species or system Plasmodium falciparum Dd2 in human erythrocytes; single determination (one 11-point concentration-response curve); conditions: Plasmodium falciparum, DD2, Erythrocyte, 72 h; read-out: AC50
[3] = tested on: P. berghei-ANKA-GFP-LucCON liver stage parasites in HepG2-A16-CD81EGFP cells; experiment: P. berghei liver stage Pb-Luc assay, Method 1 (UCSD, 1536-well); assay type: cell-based, Plasmodium berghei; conditions: Plasmodium berghei; for activity at 1 µM / activity at 3 µM: 48 h, average of 2 wells on a 1536 well plate; for AC50: Method 1
HepG2-A16-CD81EGFP cells = conditions: average of 2 wells
[4] = Method 2, Decrease = decreasing P. berghei viability with dose, Increase = increasing signal, Inactive = no dose response
[5] = HepG2, Method 2, Hill fit, 50% of maximum activity response, read-out: AC50
[6] = HepG2, Method 2, log10 of molar AC50 from Hill fit, read-out: Log AC50 (converted)
[7] = HepG2-A16-CD81EGFP cells, uninfected
[8] = 1 uM (compounds provided at 10 mM), column 11, read-out: Pb-Luc (P. berghei liver stage), % of control, lower concentration, first repeat
[9] = 1 uM (compounds provided at 10 mM), column 12, read-out: Pb-Luc (P. berghei liver stage), % of control, lower concentration, second repeat
[10] = 3 uM (compounds provided at 10 mM), column 8, read-out: Pb-Luc (P. berghei liver stage), % of control, higher concentration, first repeat
[11] = 3 uM (compounds provided at 10 mM), column 9, read-out: Pb-Luc (P. berghei liver stage), % of control, higher concentration, second repeat
[12] = Hill fit, 50% of maximum activity response, read-out: AC50
[13] = log10 of molar AC50 from Hill fit, read-out: Log AC50 (converted)

SMILES	AC50 [2]	Max Resp (signal direction of the dose response) [1, 4]	AC50 [1, 5]	AC50 [1, 6]	viability at 48 h, 1 µM (in vitro; [7])	viability at 48 h, 3 µM (in vitro; [7])	also measured
O=C1c2ccccc2-n2c1nc1ccccc1c2=O [NCGC00160337]							viability (in vitro): 87%; Max Resp (signal direction of the dose response) [1]: Increase
Cc1cc(Nc2ccc(Br)c(C)c2)n2nc(C)nc2n1 [MLS000116638-01]	1.33 µM	Decrease	0.794 µM	0.794 µM			activity at 1 µM ([3]; P. berghei liver stage, 1 µM compound treatment (10 mM stocks), replicate 1, normalized, read-out: PbLuc 1uM growth rep1): 32%; activity at 1 µM ([3]; P. berghei liver stage, 1 µM compound treatment (10 mM stocks), replicate 2, normalized, read-out: PbLuc 1uM growth rep2): 25%; activity at 3 µM ([3]; P. berghei liver stage, 3 µM compound treatment (10 mM stocks), replicate 1, normalized, read-out: PbLuc 3uM growth rep1): 9%; activity at 3 µM ([3]; P. berghei liver stage, 3 µM compound treatment (10 mM stocks), replicate 2, normalized, read-out: PbLuc 3uM growth rep2): 12%; HepG2 1uM growth rep1 (HepG2-A16-CD81EGFP cells; HepG2, 1 µM compound treatment (10 mM stocks), replicate 1, normalized): 91%; HepG2 1uM growth rep2 (HepG2-A16-CD81EGFP cells; HepG2, 1 µM compound treatment (10 mM stocks), replicate 2, normalized): 87%; HepG2 3uM growth rep1 (HepG2-A16-CD81EGFP cells; HepG2, 3 µM compound treatment (10 mM stocks), replicate 1, normalized): 86%; HepG2 3uM growth rep2 (HepG2-A16-CD81EGFP cells; HepG2, 3 µM compound treatment (10 mM stocks), replicate 2, normalized): 89%
CC(C)(C)C1CCc2[nH]c3ccccc3c(=O)c2C1 (centres unmarked) [MLS000109039-01]	1.88 µM	Decrease	0.282 µM	0.282 µM	89%	88%	
Cc1ccc(CSCc2ccc(C(=O)NC3CC3)o2)cc1 [MLS001031023-01]	2.66 µM	Decrease	0.224 µM	0.224 µM	93%	88%	
O=C(NC1CC1)c1ccc(CSCc2ccccc2Cl)o1 [MLS001030935-01]		Decrease	0.2 µM	0.2 µM	111%	100%	activity at 1 µM [3, 8]: 16%; activity at 1 µM [3, 9]: 12%; activity at 3 µM [3, 10]: 1%; activity at 3 µM [3, 11]: 9%
N=c1c2c(n(Cc3ccccc3)c3c1CCC3)CCC2 [MLS000080128-01]	4.22 µM	Inactive			98%	74%	
CCn1cc(C(=O)O)c(=O)c2cnc(N3CCN(/C(S)=N/c4ccccc4)CC3)nc21 [MLS000777921-01]	3.76 µM	Decrease	2 µM	2 µM	113%	102%	activity at 1 µM [3, 8]: 25%; activity at 1 µM [3, 9]: 24%; activity at 3 µM [3, 10]: 3.25%; activity at 3 µM [3, 11]: 2.6%
Cc1ccc2c(c1)[nH]c1c(N3CCN(Cc4ccccc4)CC3)ncnc12 [MLS000041320-01]		Inactive			82%	88%	activity at 1 µM [3, 8]: 23%; activity at 1 µM [3, 9]: 17%; activity at 3 µM [3, 10]: 5.3%; activity at 3 µM [3, 11]: 4%
Cc1ccc(C(=O)Nc2nc(-c3ccccn3)cs2)cc1[S+](=O)([O-])N1CCOCC1.O=C(O)C(F)(F)F [NCGC00345210-01]		Inactive			73%	31%	
COc1ccc(C2=Nn3c([n+](C)c4ccccc43)SC2)cc1 [MLS000717833-01]		Decrease	11.2 µM	11.2 µM	83%	63%	
c1ccc(CNc2nc(NCc3ccccc3)c3ccccc3n2)cc1 [NCGC00347066-01]		Inactive			83%	72%	
Cc1ccc(C(=O)Nc2nc(-c3ccccn3)cs2)cc1S(=O)(=O)N1CCOCC1 [MLS002157637-01]		Inactive			92%	55%	
Cc1ccc(Nc2nc(NCCO)c3ccccc3n2)cc1C [NCGC00273600-02]		Decrease	0.562 µM	0.562 µM	96%	82%	
N=c1c2ccccc2nnn1-c1ccc(C(F)(F)F)cc1 [MLS000707013-01]	3.76 µM	Decrease	0.708 µM	0.708 µM	91%	101%	activity at 1 µM [3, 8]: 23%; activity at 1 µM [3, 9]: 19%; activity at 3 µM [3, 10]: 12%; activity at 3 µM [3, 11]: 10%
Cc1ccc(-c2nn3c(=O)c4c([nH]c3c2C)CCCC4)cc1 [MLS000029798-01]	2.99 µM	Decrease	0.282 µM	0.282 µM			activity at 1 µM [3, 8]: 15%; activity at 1 µM [3, 9]: 11%; activity at 3 µM [3, 10]: 6.61%; activity at 3 µM [3, 11]: 8%
COc1ccc2nc(C[C@@H]3C[C@@H](C(C)C)[C@H](CNCc4ccccc4O)C=C3C)[nH]c2n1 [NCGC00391280-01]	0.243 µM	Inactive					AC50 [3, 12]: 1.58 µM; AC50 [3, 13]: 1.58 µM
CCOC(=O)c1c[nH]c2c3c(ccc2c1=O)CCCC3 [MLS000085191-01]		Increase			98%	106%	
O=C(Nc1ccc2c(N3CCCCC3)ncnc2c1)c1cc(F)cc(F)c1 [NCGC00425525-01]	1.88 µM						AC50 [3, 12]: 1.41 µM; AC50 [3, 13]: 1.41 µM; Activity direction (Decrease / Inactive) ([1]; P. berghei liver stage, Method 2, dose response): Decrease; AC50 ([1]; HepG2, P. berghei liver stage, Method 2, dose response, read-out: AC50): 0.398 µM; AC50 ([1]; HepG2, P. berghei liver stage, Method 2, dose response, read-out: Log AC50 (converted)): 0.398 µM
CCCCN(CC)CCNC(=O)c1cc2c(-c3ccc(Cl)cc3)nn(C)c2s1 [NCGC00108995]		Inactive					viability at 66 h (in vitro; [7]): 102%
O=C(CCc1ccccc1)NC(c1cccs1)c1cc(Cl)c2cccnc2c1O (centres unmarked) [MLS000703748-01]		Inactive			113%	51%	
O=C(Nc1ccc(N2CCN(c3ncccc3C(F)(F)F)CC2)nc1)c1cccs1 [MLS000862045-01]		Decrease	0.447 µM	0.447 µM	105%	95%	
